We go through two compounds from ChEMBL document CHEMBL5550117, “Dual-target inhibitors based on ERα: Novel therapeutic approaches for endocrine resistant breast cancer” (Eur J Med Chem, 2024).

Assay [1] deals with MCF7. The assay can be described thus: Antiproliferative activity against human MCF7 cells assessed as reduction in cell viability incubated for 48 hrs by MTT assay. The following applies: MCF7, 48 h. For orientation: Tetrazolium dyes change colour on reduction, which living cells bring about.
The nature of assay [2]: Inhibition of NF-kappaB pathway in human MCF7 cells assessed as reduction in TNFalpha level by RT-PCR analysis.
Assay [3] relates to MCF7. Description: Anti-clonogenic activity in human MCF7 cells assessed as reduction of colony formation incubated for 2 weeks by crystal violet staining based assay. The following applies: MCF7, 336 h.
In assay [4] the target is T1, Protein deacetylase HDAC6 (Homo sapiens, UniProt Q9UBN7).
T1 sequence (Q9UBN7 whole entry): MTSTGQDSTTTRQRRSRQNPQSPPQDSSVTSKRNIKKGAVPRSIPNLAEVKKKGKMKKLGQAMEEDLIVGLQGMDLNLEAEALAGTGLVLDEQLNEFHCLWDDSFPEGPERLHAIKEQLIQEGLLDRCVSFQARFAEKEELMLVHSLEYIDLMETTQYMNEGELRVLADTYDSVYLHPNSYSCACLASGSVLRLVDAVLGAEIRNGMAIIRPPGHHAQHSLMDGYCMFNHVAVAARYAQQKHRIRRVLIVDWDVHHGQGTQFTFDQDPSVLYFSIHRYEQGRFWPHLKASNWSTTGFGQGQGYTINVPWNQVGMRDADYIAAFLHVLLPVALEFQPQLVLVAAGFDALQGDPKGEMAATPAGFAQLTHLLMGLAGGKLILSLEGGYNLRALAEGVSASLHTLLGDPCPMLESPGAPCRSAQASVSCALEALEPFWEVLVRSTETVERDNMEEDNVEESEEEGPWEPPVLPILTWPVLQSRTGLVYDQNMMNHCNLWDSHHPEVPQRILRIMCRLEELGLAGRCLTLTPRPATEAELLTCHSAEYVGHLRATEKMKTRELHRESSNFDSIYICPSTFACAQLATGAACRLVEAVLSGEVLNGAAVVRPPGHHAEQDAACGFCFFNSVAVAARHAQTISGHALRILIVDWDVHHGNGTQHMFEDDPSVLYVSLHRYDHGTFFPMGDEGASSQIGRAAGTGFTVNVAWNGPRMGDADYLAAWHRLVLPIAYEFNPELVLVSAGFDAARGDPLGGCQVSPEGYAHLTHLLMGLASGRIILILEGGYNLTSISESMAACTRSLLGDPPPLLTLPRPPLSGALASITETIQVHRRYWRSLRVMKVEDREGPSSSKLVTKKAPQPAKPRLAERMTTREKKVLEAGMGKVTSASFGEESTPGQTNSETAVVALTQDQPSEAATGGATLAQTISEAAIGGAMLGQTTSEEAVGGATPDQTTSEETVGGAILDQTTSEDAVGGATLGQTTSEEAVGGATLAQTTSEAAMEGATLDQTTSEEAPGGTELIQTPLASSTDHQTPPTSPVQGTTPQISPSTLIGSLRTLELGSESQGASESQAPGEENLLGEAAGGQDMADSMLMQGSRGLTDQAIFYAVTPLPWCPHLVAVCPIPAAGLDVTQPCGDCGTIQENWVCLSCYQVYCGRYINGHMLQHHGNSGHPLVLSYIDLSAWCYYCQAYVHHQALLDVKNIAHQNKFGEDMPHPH
Description: Inhibition of HDAC6 (unknown origin).

`CCOC(=O)/C=C/C(=O)NCCOc1ccc(C(=O)c2c(-c3ccc(O)cc3)sc3cc(O)ccc23)cc1`: the IC50 in assay [1] was found to be 0.5 µM; in assay [2], 4 µM; in assay [3], 2 µM.

Take `CC/C(=C(\c1ccccc1)c1ccc(OCCN(C)Cc2ccc(NC(=O)CCCCCCC(=O)NO)cc2)cc1)c1ccccc1`: the IC50 in assay [4] turned out to be 2.2 µM.

Usually IC50 stands for the point on the concentration scale where inhibition reaches its midpoint.
